Experiments:
[1] = tested on: rat annulus fibrosus cells; assay: Effect of antioxidants on gene expression under oxidative stress induced by hydrogen peroxide or BSO (RT-PCR); type: cell-based; conditions: 24 hours
Method: (§1) Total RNA was prepared using RNeasy Mini kit (manufactured by Qiagen N.V.) or TRIzol Reagent (manufactured by Thermo Fisher Scientific Inc.). cDNA was synthesized using Prime Script RT Reagent Kit (manufactured by Takara Bio Inc.).
(§2) RT-PCR amplification was performed with Thermal Cycler Dice Real-Time System (manufactured by Takara Bio Inc.) using SYBR Premix Ex Taq (manufactured by Takara Bio Inc.). Expression was normalized to β-actin or hypoxanthine phosphoribosyl transferase (HPRT). The results were analyzed by the ddCt method.
(§3) The PCR primers used were as follows: • TNF-α (F) : 5'-[…]-3' (SEQ ID NO: 1) (R) : 5'-[…]-3' (SEQ ID NO: 2) • MMP-3 (F) : 5'-[…]-3' (SEQ ID NO: 3) (R) : 5'-[…]-3' (SEQ ID NO: 4) • COX-2 (F) : 5'-[…]-3' (SEQ ID NO: 5) (R) : 5'-[…]-3' (SEQ ID NO: 6) • AGC1 (F) : 5'-[…]-3' (SEQ ID NO: 7) (R) : 5'-[…]-3' (SEQ ID NO: 8) • β-actin (F) : 5'-[…]-3' (SEQ ID NO: 9) (R) : 5'-[…]-3' (SEQ ID NO: 10) • HPRT (F) : 5'-[…]-3' (SEQ ID NO: 11) (R) : 5'-[…]-3' (SEQ ID NO: 12)
100 µM hydrogen peroxide or 1 mM BSO was added to rat annulus fibrosus cells in the presence of 100 µM NAC, and the cells were cultured for 24 hours, followed by the measurement of the mRNA expression of TNF-α, MMP-3, COX-2, and aggrecan (Figures 4A and 4B).
Hydrogen peroxide or BSO was added to rat annulus fibrosus cells in the presence of 20 mM α-tocopherol, and the cells were cultured for 24 hours, followed by the measurement of the mRNA expression of TNF-α, MMP-3, COX-2, and aggrecan (Figures 5A and 5B). Here, ethanol was used as a solvent for α-tocopherol. Cells cultured in a medium added only with ethanol were used as a control.

[2] = tested on: rat annulus fibrosus cells; assay: Effect of antioxidants on oxidative stress induced by TNF-α (gene expression by RT-PCR); type: cell-based; conditions: 24 hours
Method: Next, NAC or tocopherol was analyzed for whether to reduce oxidative stress induced by TNF-α by its addition. 50 ng/ml of TNF-α was added to cells in the presence of 100 µM NAC or 20 mM α-tocopherol, and the cells were collected 24 hours later, followed by gene expression analysis on MMP-3, COX-2, and aggrecan by RT-PCR (Figures 6C and 6D). NAC and tocopherol were also shown to suppress oxidative stress induced by the addition of TNF-α.

COX-2 mRNA expression = assay: Effect of MAPK inhibitors on COX-2 gene expression under oxidative stress (RT-PCR); type: cell-based, rat; conditions: MAPK inhibitor 10 µM, 30 minutes later 100 µM hydrogen peroxide or 1 mM BSO; RT-PCR 24 hours later
Method: Hydrogen peroxide or BSO was added to rat annulus fibrosus cells in the presence of MAPK inhibitors, and their effects on an increase in COX-2 mRNA expression were analyzed. The MAPK inhibitors used were PD98059 (ERK inhibitor; represented by PD in Figure 3), SP600125 (JNK inhibitor; represented by SP in Figure 3), and SB203580 (p38 inhibitor; represented by SB in Figure 3) (all manufactured by Wako Pure Chemical Industries, Ltd.). These MAPK inhibitors were each added at concentration of 10 µM to a medium, and 30 minutes later, 100 µM hydrogen peroxide or 1 mM BSO was added thereto. The expression of COX-2 was analyzed by RT-PCR 24 hours later.

[3] = tested on: intervertebral disc degeneration models; assay: Rat caudal intervertebral disc puncture model, Q-space imaging (QSI) analysis; type: in vivo
Method: (§4) The present inventors prepared rat intervertebral disc degeneration models in the same way as above and conducted QSI analysis. Here, the QSI analysis was conducted using our uniquely developed program, though the analysis can employ software such as dTV II FZR. A puncture group, a NAC group, and a control group each involving 5 rats were subjected to the respective procedures and analyzed. […] The comparison of analysis results among the control group (a and d), the puncture group (b and e), and the NAC group (c and f) is shown.

[4] = tested on: MAPKs (p38, ERK, and JNK); assay: MAPK phosphorylation after oxidative stress (Western blotting); type: cell-based, rat; conditions: for phosphorylation of the MAPKs p38, ERK, and JNK: 10 minutes after treatment
Method: Western blotting was performed by a standard method.
Downstream signals of oxidative stress were studied. The involvement of MAPKs (p38, ERK, and JNK) in the downstream system of signals induced by reactive oxygen species was analyzed. […] Protein extraction and Western blotting were performed in the same way as in the experiment using the animal models described above.
Detection was performed using an anti-p38 antibody, an anti-phosphorylated p38 antibody, an anti-JNK antibody, an anti-phosphorylated JNK antibody, an anti-ERK antibody, an anti-phosphorylated ERK antibody, an anti-NF-KB p65 antibody, an anti-phosphorylated NF-κB p65 antibody, or an anti-β-actin antibody (all manufactured by Cell Signaling Technology, Inc.) as a primary antibody, a HRP-conjugated goat anti-rabbit antibody (manufactured by Sigma-Aldrich Co. LLC) as a secondary antibody, and ECL Western Blotting Detection Reagent.
Likewise, downstream signals of oxidative stress were studied by the addition of BSO. Annulus fibrosus cells were treated with 1 mM BSO, collected 0, 5, 10, 30, or 60 minutes later, and analyzed by Western blotting.

[5] = tested on: intervertebral disc degeneration; conditions: procedures for causing degeneration carried out after 1-week oral administration; Non Patent Literature 5; cited from earlier work
[6] = tested on: intervertebral disc degeneration models; assay: Rat caudal intervertebral disc puncture model, therapeutic administration, T2-weighted MRI; type: in vivo, Wistar rats
Method: The involvement of oxidative stress in intervertebral disc degeneration was studied. The caudal intervertebral discs of 8-week-old Wistar rats were punctured using a 23-G needle to prepare intervertebral disc degeneration models. A group that underwent only development without puncture (sham group) was used as a control group. Two months after the puncture, the T2 intramedullary high-intensity area was measured by MRI (GE Sigma Excite HD 1.5T, manufactured by GE Healthcare Corp.) under the following conditions: TR/TE, 3000/86; echo train length, 12; slice thickness, 2 mm; FOV, 10 cm; matrix size 352X224; NEX, 10 times.
The caudal intervertebral discs of 8-week-old female Wistar rats were punctured using a 23-G needle to prepare intervertebral disc degeneration models. The animals were divided into a group given NAC water (1 g/L) from 1 week after the puncture (NAC group) and a group raised with normal water (puncture group). A group that underwent only development without puncture (control group) was used as a control. Whether or not the administration of NAC would suppress intervertebral disc degeneration was studied 2 months after the puncture (see Figure 7A). The average body weight of the rats during the administration of NAC water was 220 g, and the average water intake of 24 hours was 35 g; thus, the rats took 159 mg/kg/day of NAC on average per day. The items to be studied were histological evaluation and a T2 intramedullary high-intensity area by MRI.
as §4

MAPK signaling cascade = assay: Effect on MAPK signaling cascade activation caused by TNF-α (Western blotting); type: cell-based, rat; conditions: 50 ng/ml TNF-α in the presence of 100 µM NAC
Method: NAC was also analyzed for whether to suppress phosphorylation in the MAPK signaling cascade generating downstream signals of oxidative stress (Figure 6E). In the same way as above, cells were treated with 50 ng/ml TNF-α in the presence of 100 µM NAC and analyzed by Western blotting.

[7] = tested on: rat annulus fibrosus cells; assay: Intracellular level of reactive oxygen species (MitoTracker Orange staining, cell sorter); type: cell-based
Method: (§5) Rat annulus fibrosus cells were prepared as follows: rat annulus fibrosus tissues were dissected from the lumbar and coccyx intervertebral discs of 8-week-old female Wistar rats, treated with DMEM containing 0.04% pronase E (manufactured by SERVA Electrophoresis GmbH) at 37°C for 1 hour, and subsequently treated with 0.025% collagenase P (manufactured by Roche Diagnostics K.K.) at 37°C for 4 hours for isolation. The isolated cells were washed with Dulbecco's modified Eagle's medium (DMEM, manufactured by Invitrogen Corp.) containing 5% heat-inactivated fetal bovine serum (manufactured by JRH Biosciences Lenexa). The isolated annulus fibrosus cells were cultured in DMEM containing 10% fetal bovine serum and 1% penicillin-streptomycin under conditions of 5% CO2 at 37°C. The cells were used within the first five passages for analysis.

[8] = tested on: rat annulus fibrosus cells; assay: Alteration in gene expression by oxidative stress inducers (RT-PCR); type: cell-based; conditions: 24 hours
Method: as §1, §2, §3, §5
Rat annulus fibrosus cells were cultured in a medium added with hydrogen peroxide (concentration: 10 µM and 100 µM) or BSO (concentration: 0.2 mM and 1 mM) for 24 hours and collected. RNA was extracted, and the mRNA expression of TNF-α, MMP-3, COX-2, and aggrecan was quantitatively measured by RT-PCR. RNA extraction and RT-PCR were performed in the same way as in the model animals described above.

[9] = 20 mM α-tocopherol, hydrogen peroxide or BSO, ethanol control
[10] = 100 µM NAC, 100 µM hydrogen peroxide or 1 mM BSO
[11] = puncture group versus NAC group
[12] = hydrogen peroxide 10 µM and 100 µM

Cc1c(C)c2c(c(C)c1O)CCC(C)(CCCC(C)CCCC(C)CCCC(C)C)O2 (stereo not drawn) [α-tocopherol]
increase in the expression of COX-2 by oxidative stress [1, 9]: significantly suppressed | increase in the expression of MMP-3 by oxidative stress [1, 9]: significantly suppressed | increase in the expression of TNF-α by oxidative stress [1, 9]: significantly suppressed | reduction in the expression of aggrecan by oxidative stress [1, 9]: suppressed | oxidative stress induced by the addition of TNF-α (gene expression of MMP-3, COX-2, and aggrecan) ([2]; 50 ng/ml TNF-α in the presence of 20 mM α-tocopherol): suppress

COc1cccc(-c2cc(=O)c3ccccc3o2)c1N [PD]
expression of COX-2 (COX-2 mRNA expression): significantly suppressed

CC(=O)N[C@@H](CS)C(=O)O [NAC, N-acetylcysteine]
increase in the expression of COX-2 by oxidative stress [1, 10]: significantly suppressed | increase in the expression of MMP-3 by oxidative stress [1, 10]: significantly suppressed | increase in the expression of TNF-α by oxidative stress [1, 10]: significantly suppressed | reduction in the expression of aggrecan by oxidative stress [1, 10]: suppressed | QSI analysis (probability at zero displacement), difference between the puncture group and the NAC group ([3]; 5 rats per group): showed the difference | QSI parameter values [3, 11]: significant difference | phosphorylation of p38 MAPK ([4]; 100 µM hydrogen peroxide in the presence of 100 µM NAC, 15 minutes): significantly suppressed | intervertebral disc degeneration [5]: prevented | effect of administration in an experiment using rats ([6]; 159 mg/kg/day): effective | T2-weighted images, difference between the puncture group and the NAC group ([6]; 5 rats per group): rarely showed the difference | T2 high-intensity area ([6]; NAC water (1 g/L, 159 mg/kg/day) from 1 week after puncture, MRI 2 months after puncture, NAC group compared with puncture group): significantly improved | T2 mapping values obtained from T2-weighted images focused on the nucleus pulposus [6, 11]: did not significantly differ | activation of the MAPK signaling cascade caused by stimulation with TNF-α (MAPK signaling cascade): suppressed | oxidative stress induced by the addition of TNF-α (gene expression of MMP-3, COX-2, and aggrecan) ([2]; 50 ng/ml TNF-α in the presence of 100 µM NAC): suppress

CCCCS(=N)(=O)CCC(N)C(=O)O (stereo not drawn) [BSO, buthionine sulfoximine]
phosphorylation of the MAPKs p38, ERK, and JNK ([4]; 1 mM BSO): strongly phosphorylated | intracellular level of reactive oxygen species ([7]; 1 mM BSO for 24 hours): increase | mRNA expression of COX-2 ([8]; BSO 0.2 mM and 1 mM): concentration-dependent increase | mRNA expression of MMP-3 ([8]; BSO 0.2 mM and 1 mM): concentration-dependent increase | mRNA expression of TNF-α ([8]; BSO 0.2 mM and 1 mM): concentration-dependent increase | mRNA expression of aggrecan ([8]; BSO 0.2 mM and 1 mM): reduced in a concentration-dependent manner

OO [hydrogen peroxide]
phosphorylation of the MAPKs p38, ERK, and JNK ([4]; 100 µM hydrogen peroxide): strongly phosphorylated | intracellular level of reactive oxygen species ([7]; 100 µM hydrogen peroxide for 24 hours): increase | mRNA expression of COX-2 [8, 12]: concentration-dependent increase | mRNA expression of MMP-3 [8, 12]: concentration-dependent increase | mRNA expression of TNF-α [8, 12]: concentration-dependent increase | mRNA expression of aggrecan [8, 12]: reduced in a concentration-dependent manner

C[S+]([O-])c1ccc(-c2nc(-c3ccncc3)c(-c3ccc(F)cc3)[nH]2)cc1 (stereo not drawn) [SB]
expression of COX-2 (COX-2 mRNA expression): significantly suppressed

Source: patent EP3360574B1, “MEDICINAL COMPOSITION FOR AMELIORATING AND TREATING INTERVERTEBRAL DISC DEGENERATION AND LOW BACK PAIN, AND METHOD FOR SCREENING THERAPEUTIC AGENT” (Keio University, priority 2015, dated 2017)
